# Test results published in patent publication US20250000910A1, “Methods of Improving Therapeutic Efficacy of Mesenchymal Stromal Cells for Treatment of Osteoarthritis” (Georgia Tech Research Corporation, priority 2021, published 2025).
# “Also recorded” adds a separate entry of the source.
# Experiments:
# Assay type in all cases: cell-based, human
# [1] = test system: more therapeutic hMSCs (donors M1 and M2); assay: Cytokine secretion of more therapeutic hMSCs after pharmacological intervention (Luminex 41 Plex, PLSDA); details: for overall paracrine (cytokine) signaling response / secretion of therapeutic related cytokines (GM-CSF, GRO, IL-4, PDGF-AA): donors M1 and M2, +IL-1β 24 hr, vs CTRL
# Experimental: (§1) Loaded samples (2.03 μL) were determined to be within the linear range of detection of the […] Millipore Corporation) system. Cytokines were quantified using a bead based multiplex immunoassay, Luminex Cytokine/Chemokine 41 Plex Immunomodulatory Kit ([…] Millipore Corporation). […] PLSDA was performed in MATLAB (Mathworks) using a function written by Cleiton Nunes (Mathworks File Exchange). This approach accounts for the multivariate nature of the data without overfitting. Prior to inputting the data into the algorithm, all data was z-scored [(observed-mean)/SD]. Intracellular signaling phospho-proteins and cytokine media read outs were used as the independent variables and the different hMSC donor's treatment conditions were used as the outcome variables. LVs in a multidimensional space (dimensionality varied by number of independent input variables) were defined and the two primary LVs were used for orthogonal rotation to best separate groups in the new plane defined by LV1 and LV2 (FIGS. 5a-5c). • Statistical Analysis
# p-Akt = assay: hMSC intracellular signaling analysis, Akt/mTOR phosphoprotein 11-plex
# From the text: Millipore Corporation) system.
# [2] = test system: less therapeutic hMSCs (donors L1 and L2); assay: Cytokine secretion of less therapeutic hMSCs after pharmacological intervention (Luminex 41 Plex, PLSDA); details: vs CTRL
# Experimental: as §1
Structure (SMILES),overall paracrine (cytokine) signaling response [1],"secretion of therapeutic related cytokines (GM-CSF, GRO, IL-4, PDGF-AA) [1]",further results
Cc1cc(N2CCOCC2)cc2[nH]c(-c3c(NC[C@@H](O)c4cccc(Cl)c4)cc[nH]c3=O)nc12 [BMS-536924],reduced overall paracrine signaling response,no effect,
C[S+]([O-])c1ccc(-c2nc(-c3ccncc3)c(-c3ccc(F)cc3)[nH]2)cc1 (stereo not drawn) [SB203580],,reduced cytokine secretion of the therapeutic related cytokines,
CO[C@H]1C[C@@H]2CC[C@@H](C)[C@@](O)(O2)C(=O)C(=O)N2CCCC[C@H]2C(=O)O[C@H]([C@H](C)C[C@@H]2CC[C@@H](O)[C@H](OC)C2)CC(=O)[C@H](C)/C=C(\C)[C@@H](O)[C@@H](OC)C(=O)[C@H](C)C[C@H](C)/C=C/C=C/C=C/1C [Rapamycin],,no effect,
NC1(c2ccc(-c3nc4ccn5c(=O)[nH]nc5c4cc3-c3ccccc3)cc2)CCC1 [MK-2206],,,"p-Akt phospho-protein levels relative to CTRL (p-Akt; less therapeutic hMSC donor L2, combination Metformin and MK-2206, +IL-1β): significantly (p<0.01) less p-Akt phospho-protein levels; also recorded: decreased p-Akt signaling; secretion of therapeutic related cytokines (GM-CSF, GRO, IL-4, PDGF-AA) ([2]; donors L1 and L2, +IL-1β 24 hr): no effect; secretion of nonspecific cytokines ([2]; donors L1 and L2, +IL-1β): distinct reductions in nonspecific cytokines"
CCOC(=O)C1=C(N)Oc2ccc(Cl)cc2C1C(C#N)C(=O)OCC (stereo not drawn) [SC79],the greatest potentiation of paracrine signaling,no effect,"p-Akt phospho-protein levels relative to CTRL (p-Akt; more therapeutic hMSC donor M2, combination SP600125 and SC79, +IL-1β): significantly (p<0.001) more p-Akt phospho-protein levels; also recorded: increased p-Akt signaling; secretion of nonspecific cytokines ([1]; donors M1 and M2, +IL-1β): potentiated secretion of nonspecific cytokines; shift of paracrine signaling profile (PLSDA) ([1]; donors M1 and M2, +IL-1β): clear qualitative shift in the paracrine signaling profiles"
